Measurements published in US10683297B2 (Sunshine Lake Pharma Co., Ltd., priority 2017, dated 2020).

What was measured:
[1] = molecular target: T1, JAK2 (h) (Homo sapiens, UniProt O60674); assay: JAK2 (h) kinase assay; format: biochemical; details: [γ-33P-ATP] 10 μM or KM values; 40 minutes at room temperature
T1 construct: purchased Millipore UK Ltd (assays performed there as a service)
Protocol: Kinase assays can be performed by measurement of incorporation of γ-^33P ATP into immobilized myelin basic protein (MBP). High binding white 384 well plates (Greiner) are coated with MBP (Sigma # M-1891) by incubation of 60 μL well of 20 μg/mL MBP in Tris-buffered saline (TBS; 50 mM Tris pH 8.0, 138 mM NaCl, 2.7 mM KCl) for 24 h at 4° C. Plates are washed 3× with 100 μL TBS. Kinase reactions are carried out in a total volume of 34 μL in kinase buffer (according to the need to make, for example, 5 mM Hepes pH 7.6, 15 mM NaCl, 0.01% bovine gamma globulin (Sigma #1-5506), 10 mM MgCl2, 1 mM DTT, 0.02% TritonX-100). Compound dilutions are performed in DMSO and added to assay wells to a final DMSO concentration of 1%. Each data point is measured in duplicate, and at least two duplicate assays are performed for each individual compound determination. Enzyme is added to final concentrations of 10 nM or 20 nM, for example. A mixture of unlabeled ATP and γ-^33P ATP is added to start the reaction (2×10^6 cpm of γ-^33P ATP per well (3000 Ci/mmole) and 10 μM unlabeled ATP, typically. The reactions are carried out for 1 hour at room temperature with shaking. Plates are washed 7× with TBS, followed by the addition of 50 μL well scintillation fluid (Wallac). Plates are read using a Wallac Trilux counter. This is only one format of such assays; various other formats are possible, as known to one skilled in the art.
The above assay procedure can be used to determine the IC50 for inhibition and/or the inhibition constant, Ki. […] The IC50 value is estimated by preparing a 10 point curve using a ½ log dilution series (for example, a typical curve may be prepared using the following compound concentrations: 3 μM, 1 μM, 0.3 μM, 0.1 μM, 0.03 μM, 0.01 μM, 0.003 μM, 0.001 μM, 0.0003 μM and 0 μM).
JAK2 (h) is incubated with 8 mM MOPS pH 7.0, 0.2 mM EDTA, 100 μM […], 10 mM MgAcetate and [γ-^33P-ATP] […] The reaction is initiated by the addition of the MgATP mix. After incubation for 40 minutes at room temperature, the reaction is stopped by the addition of 3% phosphoric acid solution. 10 μL of the reaction is then spotted onto a P30 filtermat and washed three times for 5 minutes in 75 mM phosphoric acid and once in methanol prior to drying and scintillation counting.
The kinase assays described herein were performed at Millipore UK Ltd, Dundee Technology Park, Dundee DD2 1SW, UK.

[2] = Compound stability in human liver microsomes; format: in vitro ADME; details: for half-life at 5 μM: human liver microsomes 0.5 mg protein/mL, compound 5 μM, NADPH 1.0 mM, pH 7.4, 37° C., read-out: Human T1/2; for CLint scaled at 5 μM: liver microsomes, pH 7.4, in vivo CLint extrapolated from human liver microsome incubation
Method in brief: (§1)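 Compounds (5 μM) incubated at 37 °C with human or rat liver microsomes (0.5 mg protein/mL) and 1.0 mM NADPH in 100 mM phosphate buffer pH 7.4, 0.05% DMSO, in duplicate. Sampled 0–60 min, quantified by LC/MS/MS as % of time zero; CLint extrapolated.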

[3] = Compound stability in rat liver microsomes; format: in vitro ADME; details: for CLint scaled at 5 μM: liver microsomes, pH 7.4, in vivo CLint extrapolated from rat liver microsome incubation; for half-life at 5 μM: rat liver microsomes 0.5 mg protein/mL, compound 5 μM, NADPH 1.0 mM, pH 7.4, 37° C., read-out: Rat T1/2
Method in brief: as §1

T1 sequence (O60674 whole entry): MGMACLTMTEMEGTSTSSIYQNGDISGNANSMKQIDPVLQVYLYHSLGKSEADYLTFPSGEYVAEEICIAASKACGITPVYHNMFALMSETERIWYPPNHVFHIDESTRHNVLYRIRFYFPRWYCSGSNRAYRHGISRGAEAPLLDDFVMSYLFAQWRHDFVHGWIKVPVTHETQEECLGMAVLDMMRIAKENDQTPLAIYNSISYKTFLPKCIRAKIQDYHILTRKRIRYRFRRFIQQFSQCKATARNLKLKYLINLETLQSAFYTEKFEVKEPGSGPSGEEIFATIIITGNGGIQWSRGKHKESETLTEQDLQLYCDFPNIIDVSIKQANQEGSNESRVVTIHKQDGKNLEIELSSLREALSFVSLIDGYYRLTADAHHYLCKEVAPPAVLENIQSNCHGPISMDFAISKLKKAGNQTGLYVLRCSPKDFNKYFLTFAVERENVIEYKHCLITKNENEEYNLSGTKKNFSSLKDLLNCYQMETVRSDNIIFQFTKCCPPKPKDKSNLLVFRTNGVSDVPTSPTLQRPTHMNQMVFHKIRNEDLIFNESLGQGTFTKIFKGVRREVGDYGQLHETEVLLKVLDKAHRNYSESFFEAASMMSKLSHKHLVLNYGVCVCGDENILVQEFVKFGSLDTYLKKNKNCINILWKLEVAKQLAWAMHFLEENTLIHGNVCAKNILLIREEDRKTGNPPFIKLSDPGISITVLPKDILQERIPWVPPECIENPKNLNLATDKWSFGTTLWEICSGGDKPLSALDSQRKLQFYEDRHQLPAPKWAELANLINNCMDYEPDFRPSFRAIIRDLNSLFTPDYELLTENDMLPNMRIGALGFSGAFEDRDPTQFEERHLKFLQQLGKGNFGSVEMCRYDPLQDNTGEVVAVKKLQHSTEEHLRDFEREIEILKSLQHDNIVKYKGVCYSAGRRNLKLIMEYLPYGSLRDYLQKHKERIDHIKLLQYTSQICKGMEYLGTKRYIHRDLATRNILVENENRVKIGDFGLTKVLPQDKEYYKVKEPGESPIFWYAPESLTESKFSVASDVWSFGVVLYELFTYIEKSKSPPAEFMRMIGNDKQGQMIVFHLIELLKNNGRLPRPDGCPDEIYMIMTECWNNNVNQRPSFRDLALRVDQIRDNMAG

Row | Structure (SMILES) | IC50 [1] [nM] | half-life at 5 μM [2] [min] | CLint scaled at 5 μM [2] [mL/min/kg] | CLint scaled at 5 μM [3] [mL/min/kg] | half-life at 5 μM [3] [min]
1 | Cc1cnc2cc(Nc3ncc(Cl)c(NC4CCN(c5ccc(C#N)nn5)CC4)n3)ccn12 [Example 12, 6-(4-((5-chloro-2-((3-methylimidazo[1,2-a]pyridin-7-yl)amino)pyrimidin-4-yl)amino)piperidin-1-yl)pyridazine-3-carbonitrile] | 16 | 117 | 14.9 | 13.4 | 186
2 | CC(C)(O)c1nnc2cc(Nc3ncc(Cl)c(NC4CCN(c5ccc(C#N)cn5)CC4)n3)ccn12 [Example 40] | 1 | 361 | 4.8 | 44.7 | 55.6
3 | CCC1CN(c2ccc(C#N)cn2)CCC1Nc1nc(Nc2ccn3c(C)cnc3c2)ncc1Cl (centres unmarked) [Example 2, 6-(4-((5-chloro-2-((3-methylimidazo[1,2-a]pyridin-7-yl)amino)pyrimidin-4-yl)amino)-3-ethylpiperidin-1-yl)nicotinonitrile] | 3 | 36.2 | 48.1 | 52.4 | 47.4
4 | Cc1nc2cc(Nc3ncc(Cl)c(NC4CCN(c5ccc(C#N)cn5)CC4)n3)ccc2n1C [Example 48, 6-(4-((5-chloro-2-((1,2-dimethyl-1H-benzo[d]imidazol-5-yl)amino)pyrimidin-4-yl)amino)piperidin-1-yl)nicotinonitrile] | 0.7 | 37 | 46.9 | 44.6 | 55.7
5 | CC(C)(O)Cc1nnc2cc(Nc3ncc(Cl)c(NC4CCN(c5ccc(C#N)nn5)CC4)n3)ccn12 [Example 75, 6-(4-((5-chloro-2-((3-(2-hydroxy-2-methylpropyl)-[1,2,4]triazolo[4,3-a]pyridin-7-yl)amino)pyrimidin-4-yl)amino)piperidin-1-yl)pyridazine-3-carbonitrile] | 8 | > 60 | – | – | > 60
6 | CC(C)(O)Cc1nnc2cc(Nc3ncc(Cl)c(NC4CCN(c5ccc(C#N)cn5)CC4)n3)ccn12 [Example 74, 6-(4-((5-chloro-2-((3-(2-hydroxy-2-methylpropyl)-[1,2,4]triazolo[4,3-a]pyridin-7-yl)amino)pyrimidin-4-yl)amino)piperidin-1-yl)nicotinonitrile] | 4 | > 60 | – | – | > 60
7 | N#Cc1ccc(N2CCC(Nc3nc(Nc4ccn5c(C(F)F)nnc5c4)ncc3Cl)CC2)nc1 [Example 30, 6-(4-((5-chloro-2-((3-(difluoromethyl)-[1,2,4]triazolo[4,3-a]pyridin-7-yl)amino)pyrimidin-4-yl)amino)piperidin-1-yl)nicotinonitrile] | 10 | 126 | 13.8 | 30.8 | 80.5
8 | Cn1nnc2cc(Nc3ncc(Cl)c(NC4CCN(c5ccc(C#N)nn5)CC4)n3)ccc21 [Example 47, 6-(4-((5-chloro-2-((l-methyl-1H-benzo[d][1,2,3]triazol-5-yl)amino)pyrimidin-4-yl)amino)piperidin-1-yl)pyridazine-3-carbonitrile] | 7 | 108 | 16.1 | 89.4 | 27.8
9 | CC(C)(O)Cc1nc2cc(Nc3ncc(Cl)c(NC4CCN(c5ccc(C#N)nn5)CC4)n3)ccn2n1 [Example 77, 6-(4-((5-chloro-2-((2-(2-hydroxy-2-methylpropyl)-[1,2,4]triazolo[1,5-a]pyridin-7-yl)amino)pyrimidin-4-yl)amino)piperidin-1-yl)pyridazine-3-carbonitrile] | 17 | 257 | 6.8 | 38.2 | 65
10 | Cn1cnc2cc(Nc3ncc(Cl)c(NC4CCN(c5ccc(C#N)cn5)CC4)n3)ccc21 [Example 46, 6-(4-((5-chloro-2-((1-methyl-1H-benzo[d]imidazol-5-yl)amino)pyrimidin-4-yl)amino)piperidin-1-yl)nicotinonitrile] | 1 | 63.1 | 27.5 | 32.5 | 76.3
11 | CC(C)(O)c1cn2ccc(Nc3ncc(Cl)c(NC4CCN(c5ccc(C#N)cn5)CC4)n3)cc2n1 [Example 70, 6-(4-((5-chloro-2-((2-(2-hydroxypropan-2-yl)imidazo[1,2-a]pyridin-7-yl)amino)pyrimidin-4-yl)amino)piperidin-1-yl)nicotinonitrile] | 8 | 10.3 | 168 | 528 | 4.71
12 | CC(O)Cc1nc2cc(Nc3ncc(Cl)c(NC4CCN(c5ccc(C#N)nn5)CC4)n3)ccn2n1 (centres unmarked) [Example 56, 6-(4-((5-chloro-2-((2-(2-hydroxypropyl)-[1,2,4]triazolo[1,5-a]pyridin-7-yl)amino)pyrimidin-4-yl)amino)piperidin-1-yl)pyridazine-3-carbonitrile] | 15 | 47.7 | 36.5 | 50.9 | 48.8
13 | CC(O)Cn1cnc2cc(Nc3ncc(Cl)c(NC4CCN(c5ccc(C#N)cn5)CC4)n3)ccc21 (centres unmarked) [Example 61, 6-(4-((5-chloro-2-((1-(2-hydroxypropyl)-1H-benzo[d]imidazol-5-yl)amino)pyrimidin-4-yl)amino)piperidin-1-yl)nicotinonitrile] | 1 | 128 | 13.6 | 86.2 | 28.8
14 | CC(C)(O)c1cnc2cc(Nc3ncc(Cl)c(NC4CCN(c5ccc(C#N)cn5)CC4)n3)ccn12 [Example 68, 6-(4-((5-chloro-2-((3-(2-hydroxypropan-2-yl)imidazo[1,2-a]pyridin-7-yl)amino)pyrimidin-4-yl)amino)piperidin-1-yl)nicotinonitrile] | 3 | 10.6 | 164 | 130 | 19
15 | CC(C)(O)c1nc2cc(Nc3ncc(Cl)c(NC4CCN(c5ccc(C#N)nn5)CC4)n3)ccn2n1 [Example 55, 6-(4-((5-chloro-2-((2-(2-hydroxypropan-2-yl)-[1,2,4]triazolo[1,5-a]pyridin-7-yl)amino)pyrimidin-4-yl)amino)piperidin-1-yl)pyridazine-3-carbonitrile] | 14 | 1370 | 1.3 | 7.3 | 340
16 | N#Cc1ccc(N2CCC(Nc3nc(Nc4ccc5c(c4)nnn5CC4CC4)ncc3Cl)CC2)nc1 [Example 60, 6-(4-((5-chloro-2-((1-(cyclopropylmethyl)-1H-benzo[d][1,2,3]triazol-5-yl)amino)pyrimidin-4-yl)amino)piperidin-1-yl)nicotinonitrile] | 4 | 15.6 | 112 | 732 | 3.4
17 | Cc1nc2cc(Nc3ncc(Cl)c(NC4CCN(c5ccc(C#N)cn5)CC4)n3)ccn2n1 [Example 32, 6-(4-((5-chloro-2-((2-methyl-[1,2,4]triazolo[1,5-a]pyridin-7-yl)amino)pyrimidin-4-yl)amino)piperidin-1-yl)nicotinonitrile] | 7 | – | – | – | –
